According to patent US7348425B2, “Inhibitors of HCV replication” (Bristol-Myers Squibb Company, priority 2004, dated 2008):

What was measured:
[1] = target: T1, HCV NS5B RdRp genotype 1b (Hepatitis C virus genotype 1b, UniProt Q9WMX2); test: Modified HCV NS5B RdRp enzyme assay (with preincubation); type: biochemical; details: modified method (with preincubation)
T1 construct: The protein was expressed with an 18 amino acid C-terminal truncation to enhance the solubility; made in house; host or cells: E. coli BL21 (DE3), pET21a
T1 sequence (Q9WMX2 2420-2992): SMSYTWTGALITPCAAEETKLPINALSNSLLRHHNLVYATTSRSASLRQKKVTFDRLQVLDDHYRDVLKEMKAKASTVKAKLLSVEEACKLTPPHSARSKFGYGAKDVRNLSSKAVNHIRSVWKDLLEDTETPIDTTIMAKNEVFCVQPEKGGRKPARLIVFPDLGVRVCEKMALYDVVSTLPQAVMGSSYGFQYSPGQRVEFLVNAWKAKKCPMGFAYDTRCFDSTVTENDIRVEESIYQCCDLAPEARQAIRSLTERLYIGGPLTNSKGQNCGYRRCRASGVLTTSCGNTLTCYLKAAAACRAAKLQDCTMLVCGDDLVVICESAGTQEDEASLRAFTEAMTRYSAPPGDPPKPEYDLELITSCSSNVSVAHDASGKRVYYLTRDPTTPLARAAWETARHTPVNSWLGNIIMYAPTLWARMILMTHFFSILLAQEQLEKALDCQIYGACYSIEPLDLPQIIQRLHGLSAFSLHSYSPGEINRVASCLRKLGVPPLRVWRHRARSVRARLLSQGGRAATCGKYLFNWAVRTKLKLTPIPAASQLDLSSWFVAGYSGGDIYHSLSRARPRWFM
Protocol: HCVNS5B RdRp cloning, expression, and purification. The cDNA encoding the NS5B protein of HCV, genotype 1b, was cloned into the pET21a expression vector. The protein was expressed with an 18 amino acid C-terminal truncation to enhance the solubility. The E. coli competent cell line BL21 (DE3) was used for expression of the protein. Cultures were grown at 37° C. for ˜4 hours until the cultures reached an optical density of 2.0 at 600 nm. The cultures were cooled to 20° C. and induced with 1 mM IPTG. Fresh ampicillin was added to a final concentration of 50 μg/ml and the cells were grown overnight at 20° C.
Cell pellets (3 L) were lysed for purification to yield 15-24 mgs of purified NS5B. The lysis buffer consisted of 20 mM Tris-HCl, pH 7.4, 500 mM NaCl, 0.5% triton X-100, 1 mM DTT, 1 mM EDTA, 20% glycerol, 0.5 mg/ml lysozyme, 10 mM MgCl2, 15 ug/ml deoxyribonuclease I, and Complete TM protease inhibitor tablets (Roche). After addition of the lysis buffer, frozen cell pellets were resuspended using a tissue homogenizer. To reduce the viscosity of the sample, aliquots of the lysate were sonicated on ice using a microtip attached to a Branson sonicator. The sonicated lysate was centrifuged at 100,000×g for 1 hr at 4° C. and filtered through a 0.2 μm filter unit (Corning).
The protein was purified using three sequential chromatography steps: Heparin sepharose CL-6B, polyU sepharose 4B, and Hitrap SP sepharose (Pharmacia). The chromatography buffers were identical to the lysis buffer but contained no lysozyme, deoxyribonuclease I, MgCl2 or protease inhibitor and the NaCl concentration of the buffer was adjusted according to the requirements for charging the protein onto the column. Each column was eluted with a NaCl gradient which varied in length from 5-50 column volumes depending on the column type. After the final chromatography step, the resulting purity of the enzyme is >90% based on SDS-PAGE analysis. The enzyme was aliquoted and stored at −80° C.
Standard HCV NS5B RdRp enzyme assay. HCV RdRp genotype Ib assays were run in a final volume of 60 μl in 96 well plates (Costar 3912). The assay buffer is composed of 20 mM Hepes, pH 7.5, 2.5 mM KCl, 2.5 mM MgCl2, 1 mM DTT, 1.6 U RNAse inhibitor (Promega N2515), 0.1 mg/ml BSA (Promega R3961), and 2% glycerol. All compounds were serially diluted (3-fold) in DMSO and diluted further in water such that the final concentration of DMSO in the assay was 2%. HCV RdRp genotype 1b enzyme was used at a final concentration of 28 nM. A polyA template was used at 6 nM, and a biotinylated oligo-dT12 primer was used at 180 nM final concentration. Template was obtained commercially (Amersham 27-4110). Biotinylated primer was prepared by Sigma Genosys. ^3H-UTP was used at 0.6 μCi (0.29 μM total UTP). Reactions were initiated by the addition of enzyme, incubated at 30° C. for 60 min, and stopped by adding 25 μl of 50 mM EDTA containing SPA beads (4 μg/μl, Amersham RPNQ 0007). Plates were read on a Packard Top Count NXT after >1 hr incubation at room temperature.
Modified HCV NS5B RdRp enzyme assay. A modified enzyme assay was performed essentially as described for the standard enzyme assay except for the following: The biotinylated oligo dT12 primer was precaptured on streptavidin-coated SPA beads by mixing primer and beads in assay buffer and incubating at room temperature for one hour. Unbound primer was removed after centrifugation. The primer-bound beads were resuspended in 20 mM Hepes buffer, pH 7.5 and used in the assay at final concentrations of 20 nM primer and 0.67 μg/μl beads. Order of addition in the assay: enzyme (14 nM) was added to diluted compound followed by the addition of a mixture of template (0.2 nM), ^3H-UTP (0.6 μCi, 0.29 μM), and primer-bound beads, to initiate the reaction; concentrations given are final. Reactions were allowed to proceed for 4 hours at 30° C.
The IC50 values for compounds were determined using seven different [I]. […]

HCV replicon = HCV replicon FRET assay; type: cell-based; details: Hepatitis C virus; FRET assay; read-out: EC50
Protocol: The IC50 values for compounds were determined using seven different [I]. IC50 values were calculated from the inhibition using the formula y=A+((B−A)/(1+((C/x)^D))). FRET Assay Preparation. To perform the HCV FRET screening assay, 96-well cell culture plates were used. The FRET peptide (Anaspec, Inc.) (Taliani et al., Anal. Biochem. 240:60-67 (1996), hereby incorporated by reference in its entirety) contains a fluorescence donor, EDANS, near one end of the peptide and an acceptor, DABCYL, near the other end. The fluorescence of the peptide is quenched by […] resonance energy transfer (RET) between the donor and the acceptor, but as the NS3 protease cleaves the peptide the products are released from RET quenching and the fluorescence of the donor becomes apparent. The assay reagent was made as follows: 5× cell Luciferase cell culture lysis reagent from Promega (#E153A) diluted to 1× with dH2O, NaCl added to 150 mM final, the FRET peptide diluted to 20 uM final from a 2 mM stock.
To prepare plates, HCV replicon cells, with or without a Renilla luciferase reporter gene, were trypsinized and placed into each well of a 96-well plate with titrated test compounds added in columns 3 through 12; columns 1 and 2 contained a control compound (HCV protease inhibitor), and the bottom row contained cells without compound. The plates were then placed in a CO2 incubator at 37 degrees C.
Assays. Subsequent to addition of the test compounds described above (FRET Assay Preparation), at various times the plate was removed and Alamar blue solution (Trek Diagnostics, #00-100) was added per well as a measure of cellular toxicity. After reading in a Cytoflour 4000 instrument (PE Biosystems), plates were rinsed with PBS and then used for FRET assay by the addition of 30 ul of the FRET peptide assay reagent described above (FRET Assay Preparation) per well. The plate was then placed into the Cytoflour 4000 instrument which had been set to 340 excite/490 emission, automatic mode for 20 cycles and the plate read in a kinetic mode. Typically, the signal to noise using an endpoint analysis after the reads was at least three-fold. Alternatively, after Alamar blue reading, plates were rinsed with PBS, 50 ul of DMEM (high glucose) without phenol red was added and plates were then used for luciferase assay using the Promega Dual-Glo Luciferase Assay System.
Compound analysis was determined by quantification of the relative HCV replicon inhibition and the relative cytotoxicity values. To calculate cytoxicity values, the average Alamar Blue fluorescence signals from the control wells were set as 100% non-toxic. The individual signals in each of the compound test wells were then divided by the average control signal and multiplied by 100% to determine […]. To calculate the HCV replicon inhibition values, an average background value was obtained from the two wells containing the highest amount of HCV protease inhibitor at the end of the assay period. These numbers were similar to those obtained from naïve Huh-7 cells.
The background numbers were then subtracted from the average signal obtained from the control wells and this number was used as 100% activity. The individual signals in each of the compound test wells were then divided by the averaged control values after background subtraction and multiplied by 100% to determine percent activity. EC50 values for a protease inhibitor titration were calculated as the concentration which caused a 50% reduction in FRET or luciferase activity. The two numbers generated for the compound plate, percent cytoxicity and percent activity were used to determine compounds of interest for further analysis.

SMILES | IC50 [1] [nM] | EC50 (HCV replicon) [nM]
CN(C)CCNC(=O)C1=Cc2ccccc2-c2c(C3CCCCC3)c3ccc(C(=O)NC4(C(=O)Nc5ccc6c(c5)cc(C(=O)O)n6C)CCCC4)cc3n2C1 | 20 to 1000 | 10 to 1000
COC(=O)/C=C/c1ccc2[nH]c(C3(NC(=O)c4ccc5c(C6CCCCC6)c6n(c5c4)CC(=O)Nc4ccccc4-6)CCCC3)nc2c1 | 20 to 1000 | < 100
CCOC(=O)/C=C/c1ccc(NC(=O)C2(NC(=O)c3ccc4c(C5CCCCC5)c5n(c4c3)CC(=O)Nc3ccccc3-5)CCNCC2)cc1 | 20 to 1000 | 10 to 1000
COC(=O)c1ccc2c(C3CCCCC3)c3n(c2c1)CC(=O)N(CCN(C)C)c1ccccc1-3 | > 1000 | 1000 to 10000
CN1C(=O)Cn2c(c(C3CCCCC3)c3ccc(C(=O)NC4(C(=O)Nc5ccc6c(c5)cc(C(=O)O)n6C)CCCC4)cc32)-c2ccccc21 | 20 to 1000 | 10 to 1000
O=C1Cn2c(c(C3CCCCC3)c3ccc(C(=O)NS(=O)(=O)N4CCCC4)cc32)-c2ccccc2N1 | 20 to 1000 | 10 to 1000
CN(Cc1ccccc1)S(=O)(=O)NC(=O)c1ccc2c(C3CCCCC3)c3n(c2c1)CC(=O)Nc1ccccc1-3 | 20 to 1000 | 10 to 1000
O=C(O)/C=C/c1ccc2[nH]c(C3(NC(=O)c4ccc5c(C6CCCCC6)c6c7ccccc7ncn6c5c4)CCCC3)nc2c1 | 20 to 1000 | 10 to 1000
CN(C)CCN1C(=O)Cn2c(c(C3CCCCC3)c3ccc(C(=O)O)cc32)-c2ccccc21 | 20 to 1000 | 10 to 1000
COC(=O)/C=C/c1ccc(CN(C)S(=O)(=O)NC(=O)c2ccc3c(C4CCCCC4)c4n(c3c2)CC(=O)Nc2ccccc2-4)cc1 | 20 to 1000 | 10 to 1000
COC(=O)c1ccc(CN(C)S(=O)(=O)NC(=O)c2ccc3c(C4CCCCC4)c4n(c3c2)CC(=O)Nc2ccccc2-4)cc1 | 20 to 1000 | 10 to 1000
CN(Cc1ccc(C(=O)O)cc1)S(=O)(=O)NC(=O)c1ccc2c(C3CCCCC3)c3n(c2c1)CC(=O)Nc1ccccc1-3 | 20 to 1000 | 1000 to 10000
CN(Cc1ccc(/C=C/C(=O)O)cc1)S(=O)(=O)NC(=O)c1ccc2c(C3CCCCC3)c3n(c2c1)CC(=O)Nc1ccccc1-3 | 20 to 1000 | 1000 to 10000
COC(=O)/C=C/c1ccc(NC(=O)C2(NC(=O)c3ccc4c(C5CCCCC5)c5n(c4c3)CCCc3sc(C)nc3-5)CCCC2)cc1 | > 1000 | > 10000
Cc1nc2c(s1)CCCn1c-2c(C2CCCCC2)c2ccc(C(=O)O)cc21 | > 1000 | > 10000
Nc1nc2c(s1)CCCn1c-2c(C2CCCCC2)c2ccc(C(=O)O)cc21 | > 1000 | > 10000

SMILES | IC50 [1] [nM] | EC50 (HCV replicon) [nM]
Cc1nc2c(s1)CCCn1c-2c(C2CCCCC2)c2ccc(C(=O)NC3(C(=O)Nc4ccc(/C=C/C(=O)O)cc4)CCCC3)cc21 | 20 to 1000 | 1000 to 10000
N#CC1C(=O)Cn2c(c(C3CCCCC3)c3ccc(C(=O)O)cc32)-c2ccccc21 (centres unmarked) | 20 to 1000 | > 10000
COc1cc(CNC(=O)c2ccc3c(C4CCCCC4)c4n(c3c2)CC(=O)Nc2ccccc2-4)ccc1O | 20 to 1000 | < 100
O=C(O)c1ccc2c(C3CCCCC3)c3n(c2c1)CCCc1ocnc1-3 | > 1000 | > 10000
COC(=O)/C=C/c1ccc(NC(=O)C2(NC(=O)c3ccc4c(C5CCCCC5)c5n(c4c3)CCCc3sc(N)nc3-5)CCCC2)cc1 | > 1000 | > 10000
Nc1nc2c(s1)CCCn1c-2c(C2CCCCC2)c2ccc(C(=O)NC3(C(=O)Nc4ccc(/C=C/C(=O)O)cc4)CCCC3)cc21 | 20 to 1000 | 1000 to 10000
NC(=O)C1(NC(=O)c2ccc3c(C4CCCCC4)c4n(c3c2)CC(=O)Nc2ccccc2-4)CCCC1 | 20 to 1000 | 10 to 1000
O=C1Cn2c(c(C3CCCCC3)c3ccc(C(=O)NS(=O)(=O)N4CCN(c5ccccc5)CC4)cc32)-c2ccccc2N1 | 20 to 1000 | 1000 to 10000
COC(=O)c1ccc2c(c1)CCN(S(=O)(=O)NC(=O)c1ccc3c(C4CCCCC4)c4n(c3c1)CC(=O)Nc1ccccc1-4)C2 | 20 to 1000 | 1000 to 10000
O=C(O)/C=C/c1cccc(-c2nc(C3(NC(=O)c4ccc5c(C6CCCCC6)c6n(c5c4)CC=Cc4ccccc4-6)CCCC3)c[nH]2)c1 | 20 to 1000 | 10 to 1000
COC(=O)/C=C/c1ccc(NC(=O)C2(NC(=O)c3ccc4c(C5CCCCC5)c5n(c4c3)CCCc3ocnc3-5)CCCC2)cc1 | > 1000 | 1000 to 10000
O=C(O)/C=C/c1ccc(NC(=O)C2(NC(=O)c3ccc4c(C5CCCCC5)c5n(c4c3)CCCc3ocnc3-5)CCCC2)cc1 | 20 to 1000 | 10 to 1000
O=C(NC1(C(=O)OCc2ccccc2)CCCC1)c1ccc2c(C3CCCCC3)c3n(c2c1)CCCc1cc(O)ccc1-3 | > 1000 | 1000 to 10000
O=C(O)c1ccc2c(C3CCCCC3)c3n(c2c1)CCOc1ncccc1-3 | 20 to 1000 | 1000 to 10000
CCOC(=O)c1nc(-c2ccc(NC(=O)C3(NC(=O)c4ccc5c(C6CCCCC6)c6n(c5c4)CCCc4ccccc4-6)CCCC3)cc2)cs1 | > 1000 | 10 to 1000
